Assays:
[1] = target: T1, Endothelin receptor type B (Sus scrofa, UniProt P35463); test: Ability to bind with Endothelin B receptor competitively in the presence of (125 I) endothelin using receptor binding assay.
T1 sequence (P35463 whole entry): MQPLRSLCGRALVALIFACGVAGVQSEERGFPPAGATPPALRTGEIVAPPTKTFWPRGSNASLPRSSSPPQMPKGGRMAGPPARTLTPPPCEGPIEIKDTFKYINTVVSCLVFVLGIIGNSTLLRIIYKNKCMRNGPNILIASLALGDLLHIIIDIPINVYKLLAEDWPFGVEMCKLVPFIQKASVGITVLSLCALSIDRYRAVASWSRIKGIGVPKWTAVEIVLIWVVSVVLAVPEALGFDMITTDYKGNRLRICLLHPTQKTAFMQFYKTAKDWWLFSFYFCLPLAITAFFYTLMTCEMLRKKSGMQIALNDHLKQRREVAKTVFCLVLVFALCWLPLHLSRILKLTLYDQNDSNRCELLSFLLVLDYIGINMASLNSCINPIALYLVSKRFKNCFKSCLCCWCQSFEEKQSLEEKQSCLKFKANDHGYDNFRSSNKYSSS

Endothelin-1 receptor = target: T2, Endothelin-1 receptor (Sus scrofa, UniProt Q29010); test: Ability to bind with Endothelin A receptor competitively in the presence of (125 I) endothelin using receptor binding assay.
T2 sequence (Q29010 whole entry): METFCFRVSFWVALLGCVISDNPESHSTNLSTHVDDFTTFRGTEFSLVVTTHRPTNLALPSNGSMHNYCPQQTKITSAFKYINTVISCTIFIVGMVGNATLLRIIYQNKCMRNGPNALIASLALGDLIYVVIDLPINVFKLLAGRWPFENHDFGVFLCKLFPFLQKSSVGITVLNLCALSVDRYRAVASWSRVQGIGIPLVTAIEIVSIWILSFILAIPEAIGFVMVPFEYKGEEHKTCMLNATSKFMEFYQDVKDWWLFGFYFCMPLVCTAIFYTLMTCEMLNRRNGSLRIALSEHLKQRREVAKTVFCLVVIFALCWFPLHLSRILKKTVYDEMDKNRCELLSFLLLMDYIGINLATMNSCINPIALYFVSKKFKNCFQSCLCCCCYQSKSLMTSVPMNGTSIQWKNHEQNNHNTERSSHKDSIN

COc1ccc(CN(Cc2cc3c(cc2Cl)OCO3)C(Cc2ccc(O)cc2)C(=O)O)cc1 (stereo not given)
IC50 [1]: 5.5 µM
IC50 (Endothelin-1 receptor): > 100 µM

COc1ccc(CN(C(=O)c2ccc(OC)cc2)C(Cc2c[nH]c3ccccc23)C(=O)O)cc1 (stereo not given)
IC50 [1]: > 100 µM
IC50 (Endothelin-1 receptor): > 100 µM

COc1ccc(C(=O)N(Cc2cc3c(cc2Cl)OCO3)C(Cc2c[nH]c3ccccc23)C(=O)O)cc1 (stereo not given)
IC50 [1]: 49 µM
IC50 (Endothelin-1 receptor): 30 µM

COc1ccc(CC(C(=O)O)N(Cc2ccc(OC)cc2)Cc2cc(OC)c(OC)c(OC)c2)cc1 (stereo not given)
IC50 [1]: 19 µM

COc1ccc(CN(Cc2cc(OC)c(OC)c(OC)c2)C(Cc2c[nH]c3ccccc23)C(=O)O)cc1 (stereo not given)
IC50 [1]: 35 µM
IC50 (Endothelin-1 receptor): 42 µM

O=C(O)C(Cc1ccc(O)cc1)N(Cc1cc2c(cc1Cl)OCO2)C(=O)/C=C/c1ccc2c(c1)OCO2 (stereo not given)
IC50 [1]: 66 µM
IC50 (Endothelin-1 receptor): 38 µM

O=C(O)C(Cc1c[nH]c2ccccc12)N(Cc1cc2c(cc1Cl)OCO2)Cc1cc2c(cc1Cl)OCO2 (stereo not given)
IC50 [1]: 6.7 µM
IC50 (Endothelin-1 receptor): 16.3 µM

COc1ccc(CN(Cc2cc(OC)cc(OC)c2)C(Cc2ccc(O)cc2)C(=O)O)cc1 (stereo not given)
IC50 (Endothelin-1 receptor): 36 µM

COc1cccc(CN(C(=O)/C=C/c2ccc3c(c2)OCO3)C(Cc2ccc(O)cc2)C(=O)O)c1 (stereo not given)
IC50 (Endothelin-1 receptor): 31 µM

COc1ccc(CN(C(=O)/C=C/c2ccc3c(c2)OCO3)C(Cc2ccc(O)cc2)C(=O)O)cc1 (stereo not given)
IC50 [1]: 12.6 µM
IC50 (Endothelin-1 receptor): 6 µM

O=C(O)C(Cc1c[nH]c2ccccc12)N(Cc1cc2c(cc1Cl)OCO2)C(=O)/C=C/c1ccc2c(c1)OCO2 (stereo not given)
IC50 [1]: 0.66 µM
IC50 (Endothelin-1 receptor): 8.9 µM

COc1ccc(CN(C(=O)/C=C/c2ccc3c(c2)OCO3)C(Cc2c[nH]c3ccccc23)C(=O)O)cc1 (stereo not given)
IC50 [1]: 0.47 µM
IC50 (Endothelin-1 receptor): 10 µM

COc1ccc(CN(C(=O)/C=C/c2ccc3c(c2)OCO3)C(Cc2ccccc2)C(=O)O)cc1 (stereo not given)
IC50 [1]: 6.4 µM
IC50 (Endothelin-1 receptor): 27 µM

CCOC(=O)CN(Cc1cc2c(cc1Cl)OCO2)C(Cc1ccc(O)cc1)C(=O)O (stereo not given)
IC50 [1]: 55 µM
IC50 (Endothelin-1 receptor): 21.3 µM

From ChEMBL document CHEMBL1134199, “Peptoids as endothelin receptor antagonists” (Bioorg Med Chem Lett, 2001)
